Toxic doses and inconclusive results are not listed. Rule as the data show it: active = T/C of 150% or more; inactive = T/C below 125%.
System: L1210 leukemia ip in BDF1 mice, survival T/C
Assay: NCI In Vivo Anticancer Drug Screen. Data for tumor model L1210 Leukemia (intraperitoneal) in B6D2F1 (BDF1) mice
Details: endpoint: mean survival time, higher = longer survival
Procedure, shortened: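 Each compound was tested against a transplantable tumor grown in mice. The endpoint was survival, with treated animals benchmarked against vehicle controls as a simple ratio.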

[1] = dose: 100.0 mg/kg/injection, schedule: Q04DX003 (ip), vehicle: saline with Tween-80
[2] = dose: 200.0 mg/kg/injection, schedule: Q04DX003 (ip), vehicle: saline with Tween-80
[3] = dose: 50.0 mg/kg/injection, schedule: Q01DX001 (ip), vehicle: saline
[4] = dose: 100.0 mg/kg/injection, schedule: Q01DX001 (ip), vehicle: saline
[5] = dose: 100.0 mg/kg/injection, schedule: Q01DX001 (ip), vehicle: carboxymethylcellulose (CMC)
[6] = dose: 200.0 mg/kg/injection, schedule: Q01DX001 (ip), vehicle: carboxymethylcellulose (CMC)
[7] = dose: 400.0 mg/kg/injection, schedule: Q01DX001 (ip), vehicle: carboxymethylcellulose (CMC)
[8] = dose: 100.0 mg/kg/injection, schedule: Q04DX003 (ip), vehicle: Klucel (hydroxypropylcellulose) (HPC)
[9] = dose: 200.0 mg/kg/injection, schedule: Q04DX003 (ip), vehicle: Klucel (hydroxypropylcellulose) (HPC)
[10] = dose: 100.0 mg/kg/injection, schedule: Q01DX009 (ip), vehicle: saline with Tween-80
[11] = dose: 200.0 mg/kg/injection, schedule: Q01DX009 (ip), vehicle: saline with Tween-80
[12] = dose: 400.0 mg/kg/injection, schedule: Q01DX009 (ip), vehicle: saline with Tween-80
[13] = dose: 400.0 mg/kg/injection, schedule: Q04DX003 (ip), vehicle: saline with Tween-80

Measured: T/C

O=C(CCc1ccc(Cl)cc1)Nc1ccccc1
inactive: dose: 25.0 mg/kg/injection, schedule: Q04DX002 (ip), vehicle: Klucel (hydroxypropylcellulose) (HPC) 97 % of control | dose: 50.0 mg/kg/injection, schedule: Q04DX002 (ip), vehicle: Klucel (hydroxypropylcellulose) (HPC) 86 % of control | dose: 100.0 mg/kg/injection, schedule: Q04DX002 (ip), vehicle: Klucel (hydroxypropylcellulose) (HPC) 93 % of control

O=Cc1[nH]c(=O)[nH]c(=O)c1Cc1ccc(Cl)cc1
inactive: [1] 98 % of control | [2] 102 % of control

CCOc1ccn(C)c(=O)n1
inactive: [3] 90 % of control | [4] 95 % of control

OC(CF)CF
inactive: dose: 25.0 mg/kg/injection, schedule: Q01DX009 (ip), vehicle: saline 115 % of control | dose: 100.0 mg/kg/injection, schedule: Q01DX009 (ip), vehicle: saline 103 % of control

CCCCCCOc1ccc(C(=O)C(=O)c2ccccc2)cc1
inactive: [5] 109 % of control | [6] 88 % of control | [7] 97 % of control

c1ccc2c(c1)NC1CCCCC21 (configuration not stated)
inactive: dose: 100.0 mg/kg/injection, schedule: Q01DX001 (ip), vehicle: Klucel (hydroxypropylcellulose) (HPC) 90 % of control | dose: 200.0 mg/kg/injection, schedule: Q01DX001 (ip), vehicle: Klucel (hydroxypropylcellulose) (HPC) 97 % of control | dose: 400.0 mg/kg/injection, schedule: Q01DX001 (ip), vehicle: Klucel (hydroxypropylcellulose) (HPC) 93 % of control

Oc1c(-c2ccccn2)cccc1C(F)(F)F
inactive: dose: 12.5 mg/kg/injection, schedule: Q04DX003 (ip), vehicle: Klucel (hydroxypropylcellulose) (HPC) 98 % of control | dose: 25.0 mg/kg/injection, schedule: Q04DX003 (ip), vehicle: Klucel (hydroxypropylcellulose) (HPC) 102 % of control | dose: 50.0 mg/kg/injection, schedule: Q04DX003 (ip), vehicle: Klucel (hydroxypropylcellulose) (HPC) 100 % of control

Cc1ccc2nc(C)cc(NC(=O)c3ccccc3)c2c1
inactive: dose: 5.0 mg/kg/injection, schedule: Q01DX001 (ip), vehicle: saline 110 % of control | dose: 10.0 mg/kg/injection, schedule: Q01DX001 (ip), vehicle: saline 95 % of control | dose: 20.0 mg/kg/injection, schedule: Q01DX001 (ip), vehicle: saline 100 % of control | dose: 40.0 mg/kg/injection, schedule: Q01DX001 (ip), vehicle: saline 105 % of control | dose: 80.0 mg/kg/injection, schedule: Q01DX001 (ip), vehicle: saline 106 % of control

CNc1cc(N)ncn1
inactive: dose: 25.0 mg/kg/injection, schedule: Q01DX Z (ip), vehicle: saline 90 % of control | dose: 75.0 mg/kg/injection, schedule: Q01DX Z (ip), vehicle: saline 93 % of control

Cc1ccc(S(=O)(=O)Nc2ccccc2-c2nc3c(Cl)ccc(Cl)c3c(=O)o2)cc1
inactive: dose: 100.0 mg/kg/injection, schedule: Q01DX009 (ip), vehicle: other 105 % of control | dose: 100.0 mg/kg/injection, schedule: Q04DX003 (ip), vehicle: saline 88 % of control | dose: 200.0 mg/kg/injection, schedule: Q01DX009 (ip), vehicle: other 96 % of control | dose: 200.0 mg/kg/injection, schedule: Q04DX003 (ip), vehicle: saline 93 % of control | dose: 400.0 mg/kg/injection, schedule: Q01DX009 (ip), vehicle: other 104 % of control | dose: 400.0 mg/kg/injection, schedule: Q04DX003 (ip), vehicle: saline 90 % of control

O=c1cc(S(=O)(=O)c2ccccc2)[nH]c(=O)[nH]1
inactive: [8] 97 % of control | [9] 101 % of control

Nc1ccc(S(=O)(=O)O)c2ccccc12
inactive: [3] 94 % of control | [4] 94 % of control | dose: 200.0 mg/kg/injection, schedule: Q01DX001 (ip), vehicle: saline 103 % of control | dose: 400.0 mg/kg/injection, schedule: Q01DX001 (ip), vehicle: saline 94 % of control

Cc1sc(=S)n(CC(=O)O)c1C
inactive: [10] 93 % of control | [11] 93 % of control | [12] 92 % of control

CC(=O)Oc1cc(C(c2ccccc2)c2ccccc2)ccc1N(C(C)=O)S(=O)(=O)c1ccccc1
inactive: [1] 92 % of control | [2] 88 % of control | [13] 92 % of control

CC(C)C1=CC23CCC4C(C)(C(=O)O)CCCC4(C)C2CC1OO3 (configuration not stated)
inactive: [10] 100 % of control | [11] 97 % of control | [12] 97 % of control

CC(C)(Br)CNC(=O)c1cccc([N+](=O)[O-])c1
inactive: dose: 75.0 mg/kg/injection, schedule: Q01DX009 (ip), vehicle: Klucel (hydroxypropylcellulose) (HPC) 103 % of control | dose: 75.0 mg/kg/injection, schedule: Q04DX003 (ip), vehicle: Klucel (hydroxypropylcellulose) (HPC) 95 % of control | dose: 150.0 mg/kg/injection, schedule: Q01DX009 (ip), vehicle: Klucel (hydroxypropylcellulose) (HPC) 101 % of control | dose: 150.0 mg/kg/injection, schedule: Q04DX003 (ip), vehicle: Klucel (hydroxypropylcellulose) (HPC) 97 % of control | dose: 300.0 mg/kg/injection, schedule: Q01DX009 (ip), vehicle: Klucel (hydroxypropylcellulose) (HPC) 86 % of control | dose: 300.0 mg/kg/injection, schedule: Q04DX003 (ip), vehicle: Klucel (hydroxypropylcellulose) (HPC) 92 % of control

Oc1cccc2ccc3ccc4ccccc4c3c12
inactive: dose: 87.5 mg/kg/injection, schedule: Q04DX003 (ip), vehicle: Klucel (hydroxypropylcellulose) (HPC) 93 % of control | dose: 175.0 mg/kg/injection, schedule: Q04DX003 (ip), vehicle: Klucel (hydroxypropylcellulose) (HPC) 93 % of control | dose: 350.0 mg/kg/injection, schedule: Q04DX003 (ip), vehicle: Klucel (hydroxypropylcellulose) (HPC) 95 % of control

Nc1nc2nc(N=Nc3ccc(C(=O)O)c(O)c3)[nH]c2c(=O)[nH]1
inactive: [8] 99 % of control | [9] 88 % of control

CN1CCCC1CCNc1nc(C(Cl)(Cl)Cl)nc2ccc(Cl)cc12 (configuration not stated)
inactive: dose: 25.0 mg/kg/injection, schedule: Q01DX009 (ip), vehicle: saline with Tween-80 106 % of control | dose: 50.0 mg/kg/injection, schedule: Q01DX009 (ip), vehicle: saline with Tween-80 96 % of control | [10] 106 % of control | [1] 88 % of control

OC(c1ccccc1)(c1ccccc1)c1cccs1
inactive: [1] 94 % of control | [2] 94 % of control | [13] 91 % of control

COC1=C(NCc2ccccc2)C(=O)C(OC)=C(NCc2ccccc2)C1=O
inactive: dose: 50.0 mg/kg/injection, schedule: Q01DX001 (ip), vehicle: carboxymethylcellulose (CMC) 113 % of control | [5] 101 % of control | dose: 100.0 mg/kg/injection, schedule: Q01DX009 (ip), vehicle: Klucel (hydroxypropylcellulose) (HPC) 92 % of control | [8] 90 % of control | [6] 107 % of control | dose: 200.0 mg/kg/injection, schedule: Q01DX009 (ip), vehicle: Klucel (hydroxypropylcellulose) (HPC) 95 % of control | [9] 93 % of control | [7] 107 % of control | dose: 400.0 mg/kg/injection, schedule: Q01DX009 (ip), vehicle: Klucel (hydroxypropylcellulose) (HPC) 92 % of control | dose: 400.0 mg/kg/injection, schedule: Q04DX003 (ip), vehicle: Klucel (hydroxypropylcellulose) (HPC) 97 % of control

Cn1c(=O)c2c(ncn2CCSCC2=NS(=O)(=O)c3cc(S(N)(=O)=O)c(C(F)(F)F)cc3N2)n(C)c1=O
inactive: dose: 100.0 mg/kg/injection, schedule: Q04DX002 (ip), vehicle: saline 97 % of control | dose: 200.0 mg/kg/injection, schedule: Q04DX002 (ip), vehicle: saline 94 % of control | dose: 400.0 mg/kg/injection, schedule: Q04DX002 (ip), vehicle: saline 94 % of control

Source: PubChem BioAssay AID248 (DTP/NCI, 2004)
